Values after ≈ are worked out from the molar mass of the structure shown. Where two headings read alike, the source gives them in different places.
Legend:
[1] = test system: Standard Strain H37Rv of mycobacterium tuberculosis; assay: MIC against standard strain H37Rv by Microplate Alamar Blue Assay (MABA); type: cell-based; details: M. tuberculosis H37Rv, 7H9 medium, 37° C.
[2] = Acute toxicity in mice, single oral intragastric administration; type: in vivo; details: male, BALB/C, mouse, in vivo, single oral intragastric administration, preliminary
Method: (§1) Experiments on the Acute Toxicity of the Compounds
(§2) The acute toxicities of Compounds 4, 16 and 25 were in vivo evaluated preliminarily in mice. Animal: male BALB/C mice, 18-20 g/mouse, 3 mice for blank control group, and 5 mice for each of test groups.
(§3) Method: Suspensions of Compound 25: 49 mg/ml (depended on the total amount of the compound provided); Compounds 4 and 16: 50 mg/ml were prepared in 0.5% CMC to separately. Each mouse of the 3 groups was subjected to oral intragastric administration of 0.2 ml of drug, and the doses were separately as follows: Compound 25: 490 mg/kg; and Compounds 4 and 16: 500 mg/kg. The blank control was administered with water. The consciousness, behavior and death of mice were observed every day after administration until 7 days of administration, and the survived mice were dissected after 7 days to observe pathological changes of tissues.

male BALB/C mice = assay: as above; type: in vivo; details: observed 7 days
Method: as §1, §2, §3

For `COc1cc2ccc(Br)cc2cc1C(c1ccccc1)C(O)(CCN(C)C)c1cccc2ccccc12` (stereo not drawn) [Compound 25, 1-phenyl-2-(1-naphthyl)-1-[2-(7-bromo-3-methoxy)naphthyl]-4-(N,N-dimethylamino)-butan-2-ol], the MIC [1] was 0.594 µg/mL (≈ 1.07 µM), the LD50 at 7 days [2] was no less than 490 mg/kg and the “death or abnormality of the animals” value (male BALB/C mice; single dose of 490 mg/kg) was “no death nor abnormality”.
In the case of `COc1cc2ccccc2cc1C(c1ccc(Cl)cc1)C(O)(CCN(C)C)c1ccc(F)cc1F` (stereo not drawn) [Compound 14, 1-(4-chlorophenyl)-2-(2,4-difluorophenyl)-1-[2-(3-methoxy)naphthyl]-4-(N,N-dimethylamino)-butan-2-ol], the MIC [1] is reported as 0.754 µg/mL (≈ 1.52 µM) and the melting point is reported as 190.6 to 192.4 °C.
Compound `COc1cc2ccc(Br)cc2cc1C(c1ccc(C)cc1)C(O)(CCN(C)C)c1cccc2ccccc12` (stereo not drawn) [Compound 30, 1-(4-methylphenyl)-2-(1-naphthyl)-1-[2-(7-bromo-3-methoxy)naphthyl]-4-(N,N-dimethylamino)-butan-2-ol] has an MIC [1] of 1.000 µg/mL (≈ 1.76 µM) and a melting point of 189.5 to 190.8 °C.
With `COc1cc2ccc(Br)cc2cc1C(c1ccc(Cl)cc1)C(O)(CCN(C)C)c1cccc2ccccc12` (single isomer, unassigned) [Compound 4, 1-(4-chlorophenyl)-2-(1-naphthyl)-1-[2-(7-bromo-3-methoxy)naphthyl]-4-(N,N-dimethylamino)-butan-2-ol] the MIC [1] was 0.244 µg/mL (≈ 0.414 µM), the LD50 at 7 days [2] was no less than 500 mg/kg and the “death or abnormality of the animals” value (male BALB/C mice; single dose of 500 mg/kg) was “no death nor abnormality”.
For `COc1cc2ccc(Br)cc2cc1C(c1ccc(Cl)cc1)C(O)(CCN(C)C)c1cccc(Br)c1` (stereo not drawn) [Compound 16, 1-(4-chlorophenyl)-2-(3-bromophenyl)-1-[2-(7-bromo-3-methoxy)naphthyl]-4-(N,N-dimethylamino)-butan-2-ol], the MIC [1] was 0.184 µg/mL (≈ 0.298 µM), the LD50 at 7 days [2] was no less than 500 mg/kg and the “death or abnormality of the animals” value (male BALB/C mice; single dose of 500 mg/kg) was “no death nor abnormality”.
Compound `COc1cc2ccc(Br)cc2cc1C(c1cccc(Cl)c1)C(O)(CCN(C)C)c1cccc2ccccc12` (stereo not drawn) [Compound 35, 1-(3-chlorophenyl)-2-(1-naphthyl)-1-[2-(7-bromo-3-methoxy)naphthyl]-4-(N,N-dimethylamino)-butan-2-ol] has an MIC [1] of 0.114 µg/mL (≈ 0.194 µM).
With `COc1cc2ccccc2cc1C(c1ccccc1)C(O)(CCN(C)C)c1cccc2ccccc12` (stereo not drawn) [Compound 1, 1-phenyl-2-(1-naphthyl)-1-[2-(3-methoxy)-naphthyl]-4-(N,N-dimethylamino)-butan-2-ol] the MIC ([1]; Mycobacterium tuberculosis, H37RV, read-out: MIC) was 2.05 µg/mL (≈ 4.3 µM).
`COc1c(C(c2ccccc2)C(O)(CCN(C)C)c2cccc3ccccc23)cc2cc(Br)ccc2c1Br` (stereo not drawn) [Compound 31, 1-phenyl-2-(1-naphthyl)-1-[2-(4,7-dibromo-3-methoxy)naphthyl]-4-(N,N-dimethylamino)-butan-2-ol] showed an MIC [1] of 0.124 µg/mL (≈ 0.196 µM).
Compound `COc1cc2ccc(Br)cc2cc1C(c1ccc(Cl)cc1)C(O)(CCN(C)C)c1cccc2ccccc12` (single isomer, unassigned) [Compound 3, 1-(4-chlorophenyl)-2-(1-naphthyl)-1-[2-(7-bromo-3-methoxy)naphthyl]-4-(N,N-dimethylamino)-butan-2-ol] has an MIC [1] of 2.883 µg/mL (≈ 4.89 µM).
In the case of `COc1cc2ccc(Br)cc2cc1C(c1ccccc1)C(O)(CCN(C)C)c1ccccc1Br` (stereo not drawn) [Compound 23, 1-phenyl-2-(2-bromophenyl)-1-[2-(7-bromo-3-methoxy)naphthyl]-4-(N,N-dimethylamino)-butan-2-ol], the MIC [1] is reported as greater than 32 µg/mL.
